Experimental data as given in ChEMBL document CHEMBL3992552, “Mechanisms of action and structure-activity relationships of cytotoxic flavokawain derivatives” (Bioorg Med Chem, 2017).
Activity calls are given as the source filed them. No cut-off for these calls is given here.

Tests used:
[1] = system: PC-3; test: Cytotoxicity against human PC3 cells assessed as cell survival at 50 uM after 48 hrs by Hoechst 33342 staining based assay relative to control; type: functional; details: PC-3, 48 h, read-out: Survival
[2] = system: MDA-MB-231; test: Cytotoxicity against human MDA-MB-231 cells assessed as cell survival at 50 uM after 48 hrs by Hoechst 33342 staining based assay relative to control; type: functional; details: MDA-MB-231, 48 h, read-out: Survival
[3] = system: HaCaT; test: Cytotoxicity against human HaCaT cells assessed as cell survival at 50 uM after 48 hrs by Hoechst 33342 staining based assay relative to control; type: functional; details: read-out: Survival
[4] = system: Huh-7; test: Cytotoxicity against human HuH7 cells assessed as cell survival at 50 uM after 48 hrs by Hoechst 33342 staining based assay relative to control; type: functional; details: Huh-7, 48 h, read-out: Survival
[5] = system: NCI-H727; test: Cytotoxicity against human NCI-H727 cells assessed as cell survival at 50 uM after 48 hrs by Hoechst 33342 staining based assay relative to control; type: functional; details: NCI-H727, 48 h, read-out: Survival
[6] = system: Caco-2; test: Cytotoxicity against human Caco2 cells assessed as cell survival at 50 uM after 48 hrs by Hoechst 33342 staining based assay relative to control; type: functional; details: Caco-2, 48 h, read-out: Survival
[7] = system: HCT-116; test: Cytotoxicity against human HCT116 cells assessed as cell survival at 50 uM after 48 hrs by Hoechst 33342 staining based assay relative to control; type: functional; details: HCT-116, 48 h, read-out: Survival
[8] = Cytotoxicity against human fibroblasts assessed as cell survival at 50 uM after 48 hrs by Hoechst 33342 staining based assay relative to control; parameters: species or system Fibroblast; details: read-out: Survival
[9] = system: MCF7; test: Induction of apoptosis in human MCF7 cells harboring wild-type p53 assessed as increase in late apoptosis at 2 times IC50 after 24 hrs by YoPro/propidium iodide/Hoechst staining based assay; type: functional, cell-based
[10] = system: MCF7; test: Induction of apoptosis in human MCF7 cells harboring wild-type p53 assessed as upregulation of cyclinB1 measured after 18 hrs by Hoechst staining based assay; type: functional, cell-based
[11] = system: HCT-116; test: Induction of apoptosis in human HCT116 cells harboring wild-type p53 assessed as upregulation of cyclinB1 measured after 48 hrs by Hoechst staining based assay; type: functional, cell-based
[12] = system: PC-3; test: Induction of apoptosis in human PC3 cells harboring p53 mutant assessed as increase in cleaved caspase3 at 2 times IC50 after 48 hrs by Hoechst staining based assay; type: functional, cell-based
[13] = system: HCT-116; test: Induction of apoptosis in human HCT116 cells harboring wild-type p53 assessed as increase in early apoptosis at 2 times IC50 after 48 hrs by YoPro/propidium iodide/Hoechst staining based assay; type: functional, cell-based
[14] = system: MDA-MB-231; test: Induction of apoptosis in human MDA-MB-231 cells harboring p53 mutant assessed as increase in cleaved caspase3 at 2 times IC50 after 24 hrs by Hoechst staining based assay; type: functional, cell-based
[15] = system: MDA-MB-231; test: Induction of apoptosis in human MDA-MB-231 cells harboring p53 mutant assessed as upregulation of cyclinB1 after 18 hrs by Hoechst staining based assay; type: functional, cell-based
[16] = system: MCF7; test: Induction of apoptosis in human MCF7 cells harboring wild-type p53 assessed as increase in early apoptosis at 2 times IC50 after 24 hrs by YoPro/propidium iodide/Hoechst staining based assay; type: functional, cell-based
[17] = system: PC-3; test: Induction of apoptosis in human PC3 cells harboring p53 mutant assessed as increase in early apoptosis at 2 times IC50 after 48 hrs by YoPro/propidium iodide/Hoechst staining based assay; type: functional, cell-based
[18] = system: HCT-116; test: Induction of apoptosis in human HCT116 cells harboring wild-type p53 assessed as increase in late apoptosis at 2 times IC50 after 48 hrs by YoPro/propidium iodide/Hoechst staining based assay; type: functional, cell-based
[19] = system: MCF7; test: Induction of apoptosis in human MCF7 cells harboring wild-type p53 assessed as upregulation of p21 measured after 48 hrs by Hoechst staining based fluorescence assay; type: functional, cell-based
[20] = system: HCT-116; test: Induction of apoptosis in human HCT116 cells harboring wild-type p53 assessed as increase in cleaved caspase3 at 2 times IC50 after 48 hrs by Hoechst staining based assay; type: functional, cell-based
[21] = system: HCT-116; test: Induction of apoptosis in human HCT116 cells harboring wild-type p53 assessed as upregulation of p21 measured after 48 hrs by Hoechst staining based fluorescence assay; type: functional, cell-based
[22] = system: MDA-MB-231; test: Induction of apoptosis in human MDA-MB-231 cells harboring p53 mutant assessed as increase in early apoptosis at 2 times IC50 after 24 hrs by YoPro/propidium iodide/Hoechst staining based assay; type: functional, cell-based
[23] = system: MDA-MB-231; test: Induction of apoptosis in human MDA-MB-231 cells harboring p53 mutant assessed as increase in late apoptosis at 2 times IC50 after 24 hrs by YoPro/propidium iodide/Hoechst staining based assay; type: functional, cell-based
[24] = system: PC-3; test: Induction of apoptosis in human PC3 cells harboring p53 mutant assessed as upregulation of cyclinB1 after 48 hrs by Hoechst staining based assay; type: functional, cell-based
[25] = system: PC-3; test: Induction of apoptosis in human PC3 cells harboring p53 mutant assessed as increase in late apoptosis at 2 times IC50 after 48 hrs by YoPro/propidium iodide/Hoechst staining based assay; type: functional, cell-based
[26] = Selectivity index, ratio of IC50 for human fibroblasts to IC50 for human RL cells
[27] = Selectivity index, ratio of IC50 for human fibroblasts to IC50 for human NCI-H727 cells
[28] = Selectivity index, ratio of IC50 for human fibroblasts to IC50 for human Caco2 cells
[29] = system: HaCaT; test: Cytotoxicity against human HaCaT cells assessed as cell viability after 48 hrs by Hoechst 33342 staining based assay; type: functional
[30] = Selectivity index, ratio of IC50 for human fibroblasts to IC50 for human HCT116 cells
[31] = Selectivity index, ratio of IC50 for human fibroblasts to IC50 for human MDA-MB-231 cells
[32] = system: Fibroblast; test: Cytotoxicity against human fibroblasts assessed as cell viability after 48 hrs by Hoechst 33342 staining based assay
[33] = system: HCT-116; test: Cytotoxicity against human HCT116 cells assessed as cell viability after 48 hrs by Hoechst 33342 staining based assay; type: functional; details: HCT-116, 48 h
[34] = system: MCF7; test: Cytotoxicity against human MCF7 assessed as cell viability after 48 hrs by Hoechst 33342 staining based assay; type: functional; details: MCF7, 48 h
[35] = system: PC-3; test: Cytotoxicity against human PC3 cells assessed as cell viability after 48 hrs by Hoechst 33342 staining based assay; type: functional; details: PC-3, 48 h
[36] = system: Caco-2; test: Cytotoxicity against human Caco2 cells assessed as cell viability after 48 hrs by Hoechst 33342 staining based assay; type: functional; details: Caco-2, 48 h
[37] = system: MDA-MB-231; test: Cytotoxicity against human MDA-MB-231 cells assessed as cell viability after 48 hrs by Hoechst 33342 staining based assay; type: functional; details: MDA-MB-231, 48 h
[38] = system: NCI-H727; test: Cytotoxicity against human NCI-H727 cells assessed as cell viability after 48 hrs by Hoechst 33342 staining based assay; type: functional; details: NCI-H727, 48 h
[39] = Selectivity index, ratio of IC50 for human fibroblasts to IC50 for human HaCaT cells
[40] = Selectivity index, ratio of IC50 for human fibroblasts to IC50 for human MCF7 cells
[41] = Selectivity index, ratio of IC50 for human fibroblasts to IC50 for human PC3 cells
[42] = system: Huh-7; test: Cytotoxicity against human HuH7 cells assessed as cell viability after 48 hrs by Hoechst 33342 staining based assay; type: functional; details: Huh-7, 48 h
[43] = system: RL; test: Cytotoxicity against human RL assessed as cell viability after 48 hrs by Hoechst 33342 staining based assay; type: functional
[44] = Selectivity index, ratio of IC50 for human fibroblasts to IC50 for human HuH7 cells

Compound	viability at 50 µM [1]	viability at 50 µM [2]	viability at 50 µM [3]	viability at 50 µM [4]	viability at 50 µM [5]	viability at 50 µM [6]	viability at 50 µM [7]	viability at 48 h, 50 µM [8]	further results
COc1cc(O)c(C(=O)/C=C/c2ccc(N(C)C)cc2)c(OC)c1	> 80%	> 80%	> 80%	> 80%	> 80%	> 80%	> 80%	> 80%	
COc1cc(O)c(C(=O)/C=C/c2ccc(Br)cc2)c(OC)c1	58%	> 80%	66%	> 80%	72%	> 80%	> 80%	> 80%	Activity [9]: inactive; Activity [10]: inactive; Activity [11]: inactive; Activity [12]: inactive; Activity [13]: inactive; Activity [14]: inactive; Activity [15]: inactive; Activity [16]: inactive; Activity [17]: inactive; Activity [18]: inactive; Activity [19]: inactive; Activity [20]: inactive; Activity [21]: inactive; Activity [22]: inactive; Activity [23]: inactive; Activity [24]: inactive; Activity [25]: inactive
COc1ccc(/C=C/C(=O)c2c(O)cc(OC)cc2OC)cc1 [FLAVOKAWAIN A]	43%	58%	35%	50%	40%	32%	20%	67%	
COc1cc(O)c(C(=O)/C=C/c2ccc(Cl)cc2)c(OC)c1	> 80%	> 80%	> 80%	> 80%	> 80%	> 80%	> 80%	> 80%	
COc1cc(OC)c(C(=O)/C=C/c2ccc(O)cc2)c(OC)c1	33%	32%	16%	45%	42%	24%	17%	65%	
COc1cc(OC)c(C(=O)/C=C/c2ccccc2OC)c(OC)c1	32%	11%	23%	6%	1%	5%	0%	77%	Ratio IC50 [26]: 0.9; Ratio IC50 [27]: 2.1; Ratio IC50 [28]: 1.8; IC50 [29]: 8.7 µM; Ratio IC50 [30]: 2; Ratio IC50 [31]: 0.6; IC50 [32]: 8.2 µM; IC50 [33]: 4.2 µM; IC50 [34]: 8.9 µM; IC50 [35]: 8.1 µM; IC50 [36]: 4.5 µM; IC50 [37]: 13 µM; IC50 [38]: 4 µM; Ratio IC50 [39]: 0.9; Ratio IC50 [40]: 0.9; Ratio IC50 [41]: 1; IC50 [42]: 9.8 µM; IC50 [43]: 9 µM; Ratio IC50 [44]: 0.8
COc1cc(O)c(C(=O)/C=C/c2ccc(C(=O)O)cc2)c(OC)c1	> 80%	> 80%	> 80%	> 80%	> 80%	> 80%	> 80%	> 80%	
COc1cc(OC)c(C(=O)/C=C/c2ccc(C(=O)O)cc2)c(OC)c1	39%	68%	59%	38%	23%	25%	7%	57%	
